≈ marks a conversion by molar mass, not a printed value. Where “and” joins values, the source holds several entries; their conditions need not be identical. Equal values may be shown once.
Key:
Assay in all cases: ≥ marks a high value that may be exact or a test limit, other limits are often not marked, values filed in µg/mL are converted to µM
[1] = tested on: Bacillus subtilis CMCC 63501
Candida albicans CA2761 = tested on: Candida albicans CA2761
[2] = tested on: Candida albicans CGMCC 2.2086
[3] = tested on: Candida krusei CGMCC 2.1857
[4] = tested on: Candida tropicalis CGMCC 2.1975
[5] = tested on: Escherichia coli ATCC 25922
Escherichia coli EC183 = tested on: Escherichia coli EC183
Escherichia coli UB1005 = tested on: Escherichia coli UB1005
[6] = tested on: Salmonella enterica subsp. enterica serovar Typhimurium C77-31
[7] = tested on: Staphylococcus aureus ATCC 25923
[8] = tested on: Staphylococcus aureus ATCC 29213
[9] = tested on: Staphylococcus epidermidis ATCC 12228
[10] = tested on: Bacillus subtilis ATCC 23857
[11] = tested on: Candida albicans ATCC 90028
[12] = tested on: Cryptococcus neoformans ATCC 28957
[13] = tested on: Pseudomonas aeruginosa ATCC 27853
Ramulariopsis gossypii = tested on: Ramulariopsis gossypii
[14] = tested on: Xanthomonas campestris pv. citri
[15] = tested on: Candida albicans ATCC 10231
Candida krusei CBS 573 = tested on: Candida krusei CBS 573
[16] = tested on: Candida parapsilosis CBS 604
[17] = tested on: Saccharomyces cerevisiae SZMC 0644
[18] = tested on: Acinetobacter baumannii ATCC 19606
[19] = tested on: Acinetobacter baumannii ATCC BAA-1605
[20] = tested on: Acinetobacter baumannii ATCC BAA-747
[21] = tested on: Acinetobacter baumannii NR-9667
[22] = tested on: Pseudomonas aeruginosa 1109
[23] = tested on: Pseudomonas aeruginosa ATCC 10145
[24] = tested on: Pseudomonas aeruginosa ATCC 15442
[25] = tested on: Pseudomonas aeruginosa ATCC 25619
[26] = tested on: Pseudomonas aeruginosa ATCC 35032
[27] = tested on: Pseudomonas aeruginosa ATCC 9027
[28] = tested on: Pseudomonas aeruginosa ATCC 9721
[29] = tested on: Pseudomonas aeruginosa ATCC BAA-1744
[30] = tested on: Pseudomonas aeruginosa PAO1
[31] = tested on: Enterococcus faecalis ATCC 29212
[32] = tested on: Salmonella enterica subsp. enterica serovar Pullorum C79-13
[33] = tested on: Staphylococcus aureus ATCC 43300

**Q.** With `CC[C@H](C)[C@H](NC(=O)[C@H](Cc1c[nH]c2ccccc12)NC(=O)[C@H](CCCCN)NC(=O)[C@H](CC(C)C)NC(=O)[C@@H](NC(=O)[C@H](CCCCN)NC(=O)CNC(=O)[C@@H](NC(=O)[C@H](CCCCN)NC(=O)[C@H](CCCCN)NC(=O)[C@H](CC(C)C)NC(=O)[C@H](CCCN=C(N)N)NC(=O)[C@H](CCCCN)NC(=O)[C@H](CCCN=C(N)N)NC(=O)[C@@H](NC(=O)[C@H](CCCCN)NC(=O)[C@H](CCCCN)NC(=O)[C@@H](N)CCCN=C(N)N)[C@@H](C)O)[C@@H](C)CC)C(C)C)C(N)=O` [RKKTRKRLKKIGKVLKWI] as the compound, how does the MIC [1] read?
**A.** 1 µM (≈ 2.28 µg/mL)

**Q.** And the MIC (Candida albicans CA2761)?
**A.** 8 µM (≈ 18.2 µg/mL)

**Q.** What about the MIC [2] of the same compound?
**A.** 16 µM (≈ 36.5 µg/mL)

**Q.** What about the MIC [3] of the same compound?
**A.** 4 µM (≈ 9.12 µg/mL)

**Q.** And the MIC [4]?
**A.** 2 µM (≈ 4.56 µg/mL)

**Q.** And the MIC [5]?
**A.** 2 µM (≈ 4.56 µg/mL)

**Q.** What about the MIC (Escherichia coli EC183) of the same compound?
**A.** 1 µM (≈ 2.28 µg/mL)

**Q.** What about the MIC (Escherichia coli UB1005) of the same compound?
**A.** 2 µM (≈ 4.56 µg/mL)

**Q.** What about the MIC [6] of the same compound?
**A.** 2 µM (≈ 4.56 µg/mL)

**Q.** What about the MIC [7] of the same compound?
**A.** 8 µM (≈ 18.2 µg/mL)

**Q.** What about the MIC [8] of the same compound?
**A.** 4 µM (≈ 9.12 µg/mL)

**Q.** What about the MIC [9] of the same compound?
**A.** 4 µM (≈ 9.12 µg/mL)

**Q.** `CC[C@H](C)[C@H](NC(=O)[C@H](Cc1ccccc1)NC(=O)[C@@H](NC(=O)[C@H](CCC(N)=O)NC(=O)[C@H](Cc1ccc(O)cc1)NC(=O)[C@H](CCCN=C(N)N)NC(=O)[C@@H](NC(=O)[C@H](CC(C)C)NC(=O)[C@H](CCCCN)NC(=O)[C@H](CCC(N)=O)NC(=O)[C@H](CC(C)C)NC(=O)[C@H](CCC(=O)O)NC(=O)[C@H](CCCCN)NC(=O)[C@H](Cc1ccccc1)NC(=O)[C@H](CC(C)C)NC(=O)[C@H](CC(C)C)NC(=O)CN)[C@@H](C)CC)[C@@H](C)CC)C(=O)NCC(=O)N[C@@H](CCCCN)C(N)=O` [GLLFKELQKLIRYQIFIGK] was tested. Which MIC [10] did it give?
**A.** 16 µM (≈ 36.9 µg/mL)

**Q.** And the MIC [11]?
**A.** ≥ 64 µM

**Q.** And the MIC [12]?
**A.** ≥ 64 µM

**Q.** What about the MIC [5] of the same compound?
**A.** 26.7 µM (≈ 61.5 µg/mL)

**Q.** What about the MIC [13] of the same compound?
**A.** 128 µM (≈ 295 µg/mL)

**Q.** What about the MIC (Ramulariopsis gossypii) of the same compound?
**A.** ≥ 64 µM

**Q.** What about the MIC [14] of the same compound?
**A.** ≥ 128 µM

**Q.** Which results are given for `CC[C@H](C)[C@H](N)C(=O)N[C@@H](C)C(=O)N[C@H](C(=O)N[C@@H](CO)C(=O)N1CCC[C@H]1C(=O)N[C@@H](Cc1ccc(O)cc1)C(=O)N[C@@H](Cc1ccc(O)cc1)C(=O)N[C@@H](C)C(=O)N[C@H]1CSSC[C@@H](C(=O)N2CCC[C@H]2C(=O)O)NC(=O)[C@H](CC(N)=O)NC1=O)[C@@H](C)O` [IATSPYYACNCP]?
**A.** MIC [15]: > 76.8 µM; MIC (Candida krusei CBS 573): ≥ 76.8 µM; MIC [16]: ≥ 76.8 µM; MIC [17]: ≥ 76.8 µM

**Q.** For `CC[C@H](C)[C@H](NC(=O)[C@H](Cc1c[nH]c2ccccc12)NC(=O)[C@H](CCCCN)NC(=O)[C@H](CC(C)C)NC(=O)[C@@H](NC(=O)[C@H](CCCCN)NC(=O)CNC(=O)[C@@H](NC(=O)[C@H](CCCCN)NC(=O)[C@H](CCCCN)NC(=O)[C@H](CC(C)C)NC(=O)[C@H](CCCN=C(N)N)NC(=O)[C@H](CCCCN)NC(=O)[C@H](CCCN=C(N)N)NC(=O)[C@@H](NC(=O)[C@H](CCCCN)NC(=O)[C@H](CCCCN)NC(=O)[C@H](CCCN=C(N)N)NC(=O)[C@H](CC(C)C)NC(=O)[C@H](CCCN=C(N)N)NC(=O)[C@@H](N)CCCN=C(N)N)[C@@H](C)O)[C@@H](C)CC)C(C)C)C(N)=O` [RRLRKKTRKRLKKIGKVLKWI], which MIC [1] is on record?
**A.** 1 µM (≈ 2.7 µg/mL)

**Q.** And the MIC (Candida albicans CA2761)?
**A.** 8 µM (≈ 21.6 µg/mL)

**Q.** And the MIC [2]?
**A.** 8 µM (≈ 21.6 µg/mL)

**Q.** What about the MIC [3] of the same compound?
**A.** 2 µM (≈ 5.41 µg/mL)

**Q.** What about the MIC [4] of the same compound?
**A.** 1 µM (≈ 2.7 µg/mL)

**Q.** What about the MIC [5] of the same compound?
**A.** 2 µM (≈ 5.41 µg/mL)

**Q.** And the MIC (Escherichia coli EC183)?
**A.** 1 µM (≈ 2.7 µg/mL)

**Q.** And the MIC (Escherichia coli UB1005)?
**A.** 2 µM (≈ 5.41 µg/mL)

**Q.** What about the MIC [6] of the same compound?
**A.** 1 µM (≈ 2.7 µg/mL)

**Q.** And the MIC [7]?
**A.** 4 µM (≈ 10.8 µg/mL)

**Q.** What about the MIC [8] of the same compound?
**A.** 4 µM (≈ 10.8 µg/mL)

**Q.** What about the MIC [9] of the same compound?
**A.** 4 µM (≈ 10.8 µg/mL)

**Q.** What does the source list for `CC[C@H](C)[C@H](NC(=O)[C@@H]1CSSC[C@H](NC(=O)[C@H](CCCCN)NC(=O)CNC(=O)[C@H](CO)NC(=O)[C@@H](NC(=O)[C@@H](NC(=O)[C@H](CCCCN)NC(=O)[C@H](CO)NC(=O)[C@H](CCCCN)NC(=O)[C@H](CC(=O)O)NC(=O)[C@H](CO)NC(=O)[C@@H]2CCCN2C(=O)CNC(=O)[C@H](CO)NC(=O)[C@H](Cc2cnc[nH]2)NC(=O)[C@H](Cc2ccc(O)cc2)NC(=O)[C@@H](N)CCCCN)C(C)C)[C@@H](C)CC)C(=O)N[C@@H](CCC(=O)O)C(=O)N[C@@H](Cc2c[nH]c3ccccc23)C(=O)N[C@@H](CCC(N)=O)C(=O)NCC(=O)NCC(=O)N[C@@H](CCC(N)=O)C(=O)N[C@@H](CC(C)C)C(=O)N[C@@H](CC(N)=O)C(=O)N1)C(=O)N[C@@H](C)C(=O)N[C@H](C(=O)O)[C@@H](C)O` [KYHSGPSDKSKVISGKCEWQGGQLNCIAT]?
**A.** MIC [15]: > 32 µM; MIC (Candida krusei CBS 573): ≥ 32 µM; MIC [16]: ≥ 32 µM; MIC [17]: ≥ 32 µM

**Q.** How did the MIC [18] turn out when `CC[C@H](C)[C@H](NC(=O)[C@H](CCCCN)NC(=O)[C@H](CCCCN)NC(=O)[C@H](Cc1c[nH]c2ccccc12)NC(=O)[C@@H](NC(=O)[C@H](CCCCN)NC(=O)[C@@H](NC(=O)[C@H](CCCN=C(N)N)NC(=O)[C@H](CCCN=C(N)N)NC(=O)[C@H](CCCCN)NC(=O)[C@@H](N)Cc1c[nH]c2ccccc12)[C@@H](C)CC)[C@@H](C)CC)C(=O)N[C@@H](CCCN=C(N)N)C(=O)O` [WKRRIKIWKKIR] was run?
**A.** > 256 µM

**Q.** And the MIC [19]?
**A.** ≥ 256 µM

**Q.** What about the MIC [20] of the same compound?
**A.** ≥ 256 µM

**Q.** And the MIC [21]?
**A.** ≥ 256 µM

**Q.** What about the MIC [22] of the same compound?
**A.** ≥ 128 µM

**Q.** And the MIC [23]?
**A.** ≥ 256 µM

**Q.** And the MIC [24]?
**A.** ≥ 256 µM

**Q.** And the MIC [25]?
**A.** ≥ 256 µM

**Q.** And the MIC [13]?
**A.** 256 µM (≈ 438 µg/mL)

**Q.** What about the MIC [26] of the same compound?
**A.** ≥ 256 µM

**Q.** What about the MIC [27] of the same compound?
**A.** > 256 µM

**Q.** What about the MIC [28] of the same compound?
**A.** ≥ 256 µM

**Q.** What about the MIC [29] of the same compound?
**A.** ≥ 256 µM

**Q.** What about the MIC [30] of the same compound?
**A.** > 256 µM

**Q.** Which MIC [1] does the source give for `CC[C@H](C)[C@H](NC(=O)[C@H](CCCN=C(N)N)NC(=O)[C@H](CCCCN)NC(=O)[C@H](Cc1ccccc1)NC(=O)[C@H](CCC(=O)O)NC(=O)[C@H](CCCCN)NC(=O)CN)C(=O)N[C@H](C(=O)N[C@@H](CCCCN)C(=O)N[C@@H](Cc1c[nH]c2ccccc12)C(=O)N1CCC[C@H]1C(=O)N[C@@H](Cc1c[nH]c2ccccc12)C(=O)N[C@@H](Cc1c[nH]c2ccccc12)C(=O)N1CCC[C@H]1C(=O)N[C@@H](Cc1c[nH]c2ccccc12)C(=O)N[C@@H](CCCN=C(N)N)C(=O)N[C@@H](CCCN=C(N)N)C(N)=O)C(C)C` [GKEFKRIVKWPWWPWRR] here?
**A.** 4 µM (≈ 9.42 µg/mL)

**Q.** And the MIC [31]?
**A.** 4 µM (≈ 9.42 µg/mL)

**Q.** What about the MIC (Escherichia coli UB1005) of the same compound?
**A.** 2 µM (≈ 4.71 µg/mL)

**Q.** And the MIC [13]?
**A.** 16 µM (≈ 37.7 µg/mL)

**Q.** What about the MIC [32] of the same compound?
**A.** 2 µM (≈ 4.71 µg/mL)

**Q.** What about the MIC [6] of the same compound?
**A.** 4 µM (≈ 9.42 µg/mL)

**Q.** And the MIC [8]?
**A.** 4 µM and 8 µM

**Q.** What about the MIC [33] of the same compound?
**A.** 2 µM (≈ 4.71 µg/mL)

**Q.** What about the MIC [9] of the same compound?
**A.** 8 µM (≈ 18.8 µg/mL)
